{"source": "patent US20170035691A1", "about": "“FOOD MATRICES AND METHODS OF MAKING AND USING” (UNIVERSITY OF MASSACHUSETTS, priority 2014, published 2017)", "key": {"[1]": {"assay": "In vitro digestion model: bioaccessibility of β-carotene crystals mixed with emulsion or buffer (FIG. 6)", "type": "in vitro ADME", "conditions": "β-carotene crystals mixed with oil-in-water emulsion (4% corn oil) versus buffer solution (PBS) without oil", "method": "In this exemplary embodiment, β-carotene crystals were initially mixed with either an oil-in-water emulsion (containing 4% corn oil) or a buffer solution (PBS) containing no oil. The resulting mixtures were then passed through an in vitro gastrointestinal model that simulated the mouth, stomach, and small intestine. The bioaccessibility of β-carotene was determined by centrifuging the digesta resulting from a GIT model, and then measuring the fraction of β-carotene in the mixed micelle (middle phase). The GIT model used is described in Salvia-Trujillo, L.; Qian, C.; Martin-Belloso, O.; McClements, D. J., “Influence of Particle Size on Lipid Digestion and β-carotene Bioaccessibility in Emulsions and Nanoemulsions”, Food Chemistry, 141:1472-80 (2013), which is incorporated by reference herein in its entirety and for all purposes. In another instance, the method of these teachings also include using an animal feeding study to verify improvement of oral bioavailability when the predetermined pharmaceutical or nutraceutical is ingested with the food matrix. […]"}, "[2]": {"assay": "Simulated gastrointestinal tract model: β-carotene bioaccessibility of nanoemulsions (Example 1)", "type": "in vitro ADME", "conditions": "nanoemulsion, 0% corn oil (pure lemon oil system)", "method": "Each β-carotene-enriched nanoemulsion was passed through a three-step simulated GIT model that consisted of a mouth, gastric, and small intestine phase. The particle size, charge, and microstructure of the samples were measured after incubation in each stage. […]\nSmall Intestine phase: Digesta samples (30 ml) obtained from the simulated gastric phase were placed in a beaker incubated in a water bath (37° C.) for 10 min and then adjusted to pH 7 with NaOH solution (0.05 or 1 M). […] The amount of free fatty acids released was calculated from the titration curves as described in Li, Y. and McClements, D. J., New Mathematical Model for Interpreting pH-Stat Digestion Profiles: Impact of Lipid Droplet Characteristics on in Vitro Digestibility”, Journal of Agricultural and Food Chemistry, 58:8085-92 (2010), which is incorporated herein in its entirety. The release of free fatty acids from the digestible oil (corn oil) was calculated by subtracting the FFA concentration determined at each time point for the pure lemon oil nanoemulsions from the FFA concentration determined for the nanoemulsions containing corn oil. […]"}, "[3]": {"assay": "Rat feeding study: heptadecanoic acid and CoQ10 in duodenum, jejunum, ileum (Example 2)", "type": "in vivo", "conditions": "for bioavailability in small intestinal tissues: encapsulated within digestible (corn oil) droplets with the smallest size, rat feeding study", "method": "An animal feeding study was used to test the bioavailability of free fatty acids and CoQ10. Female Sprague Dawley rats (about 200-250 g) were purchased from Charles River Laboratories (Wilmington, Mass.). The Institutional Animal Care and Use Committee of the University of Massachusetts, Amherst, approved all animal procedures. Animals were housed in individual wire-bottomed cages in a windowless room with a 12-h light-dark cycle. After 10 days of adaptation, rats were fasted for 6 hours and 5 ml of emulsion was administered into a rat's stomach using a feeding needle (Roboz Surgical Instrument, Gaithersburg, Md.). Sample administration was conducted five times with 30 min intervals. Thirty min after the final administration, the rats were sacrificed by CO2 gas asphyxiation and blood samples were collected via cardiac puncture. Collected blood samples were allowed to clot for 30 min and then the serum layer was separated by centrifugation at 800 g for 20 min at 4° C. Serum was kept at −80° C. until analysis. The small intestine was flushed with phosphate buffered saline (PBS) five times, and the duodenum, jejunum, and ileum were collected. The intestine samples were kept at −80° C. until fatty acid composition and CoQ10 analyses. The in vivo experiment was carried out once, using three rats per sample analyzed.\nIntestine extract was prepared by a method described previously by Tang, P. H., Miles, M. V., Miles, L., Quinlan, J., Wong, B., Wenisch, A., and Bove, K., “Measurement of reduced and oxidized coenzyme Q(9) and coenzyme Q(10) levels in mouse tissues by HPLC with coulometric detection”, Clinica Chimica Acta, 341(1-2):173-84 (2004), which is incorporated herein in its entirety. After thawing the intestine, approximately, 50 mg of intestine was weighed and 1 ml of ice cold 0.15M NaCl solution was added. Intestine sample (about 50 mg) was homogenized on ice and 50 μL of CoQ6 solution (Internal standard) and 25 μL of 1,4-benzoquione (5 mg/mL) solution was added to oxidize CoQ10. After 30 min. incubation at room temperature, 5 ml of 1-propanol was added and then mixed by vortexing for 1 min. Sample was centrifuged at 2,000 g for 5 min and the supernatant was filtered with a 0.1 μm disposable syringe filter (Celltreat, Shirley, Mass.). The oxidized CoQ10 concentration was standardized relative to the tissue weight.\nQuantitative analysis was carried out using a high performance liquid chromatography system (Shimadzu Co. Japan) equipped with a pump (LC-10 AT), UV-visible detector (SPD-M10A), and controller (SCL-10A). A reverse phase C-18 column (ODS-2 Hypersil, 200×4.6 mm, 5 μm, Thermo scientific, Waltham, Mass.) was used. The mobile phase comprised of a mixture of 4.2 g sodium acetate anhydrous, 15 mL of glacial acetic acid, 15 mL 2-propanol, 830 mL methanol, and 140 ml hexane. The injection volume was 100 μl, the flow rate was 1 ml/min, UV detection was made at 275 nm and all analysis was performed at room temperature under isocratic conditions.\nLipids were extracted from samples (duodenum, jejunum, ileum) and blood using a standard method by Folch, J., Lees, M., and Stanley, G. H. S., “A simple method for the isolation and purification of total lipids from animal tissues”, Journal of Biological Chemistry, 226(1):497-509 (1957), which is incorporated herein in its entirety, and then the fatty acids were methylated prior to gas chromatography analysis as taught by Park, Y. and Pariza, M. W., “Evidence that commercial calf and horse sera can contain substantial amounts of trans-10,cis-12 conjugated linoleic acid”, Lipids, 33(8):817-19 (1998), which is incorporated herein in its entirety. Tridecenoic acid was used as an internal standard. Methyl esters of fatty acids were analyzed using a GC instrument (GC-17A, Shimadzu, Kyoto, Japan) fitted with a flame-ionization detector. […]"}, "[4]": {"assay": "Curcumin solubility in curcumin-emulsion mixtures, spectrophotometric (Example 3)", "type": "physicochemical", "conditions": "excipient emulsion, aqueous with cosolvent or surfactant or cyclodextrin, thermodynamic from solid", "method": "Preparation of curcumin-emulsion, curcumin-oil, and curcumin-buffer mixtures. […] After incubation, selected samples were immediately placed in an ice water and then used for the following experiments. In some experiments, the curcumin was mixed with bulk corn oil or with buffer (PBS) solution rather than an emulsion.\n(§1) 1 mL of supernatant was then mixed with 5 mL chloroform, vortexed, and centrifuged at 1750 rpm for 10 min at ambient temperature. […] The two bottom chloroform layers were combined, and diluted to an appreciate concentration to be analyzed by a UV-VIS spectrophotometer at 419 nm (Ultraspec 3000 pro, GE Health Sciences, USA). A cuvette containing pure chloroform was used as a reference cell."}, "[5]": {"assay": "Curcumin oil-solubility in bulk corn oil by turbidity (Example 3)", "type": "physicochemical", "conditions": "for dissolution of curcumin crystals in corn oil (turbidity versus time): 3 mg/mL", "method": "In some experiments, the change in turbidity with time was measured at a fixed incubation temperature (30 or 100° C.) to determine the kinetics of isothermal dissolution."}, "[6]": {"assay": "Cross-polarized light microscopy of curcumin crystals in mixtures (Example 3)", "type": "physicochemical"}, "[7]": {"assay": "Curcumin solubility in curcumin-excipient emulsion mixtures of different droplet size (Example 4)", "type": "physicochemical", "conditions": "for solubility at 10 min: aqueous with cosolvent or surfactant or cyclodextrin, thermodynamic from solid, after incubation at 100° C.; for amount of curcumin present within the emulsion: 30° C. for 30 min", "method": "The resulting mixtures were then incubated at either 30° C. for 30 min or 100° C. for 10 min to simulate a salad dressing or a cooking sauce, respectively. After incubation, selected samples were immediately placed in an ice water and then used for the following experiments.\nas §1, with “One millilitre” for “1 mL”, “rpm (≈940×G)” for “rpm”, “a” for “an appreciate”, “concentration suitable” for “concentration”, “analysed” for “analyzed”, “Sciences, Pittsburgh, Pa.,” for “Sciences,”"}, "[8]": {"assay": "Cross-polarized light microscopy of curcumin crystals (Example 4)", "type": "physicochemical"}}}
{"compound": "CC1=C(/C=C/C(C)=C/C=C/C(C)=C/C=C/C=C(C)/C=C/C=C(C)/C=C/C2=C(C)CCCC2(C)C)C(C)(C)CCC1", "note": "[β-carotene]", "values": [{"measurement": "bioaccessibility of β-carotene", "setting": "[1]", "result": "increases the bioaccessibility"}, {"measurement": "bioaccessibility of β-carotene", "setting": "[2]", "result": "≈ 5%"}]}
{"compound": "COC1=C(OC)C(=O)C(C/C=C(\\C)CC/C=C(\\C)CC/C=C(\\C)CC/C=C(\\C)CC/C=C(\\C)CC/C=C(\\C)CC/C=C(\\C)CC/C=C(\\C)CC/C=C(\\C)CCC=C(C)C)=C(C)C1=O", "note": "[CoQ10, Coenzyme Q10]", "values": [{"measurement": "bioavailability in small intestinal tissues", "setting": "[3]", "result": "highest"}, {"measurement": "absorption of CoQ10 in all regions of the small intestine", "setting": "[3]; rat, in vivo", "result": "some absorption"}, {"measurement": "absorption of CoQ10 in duodenum", "setting": "[3]; rat, in vivo", "result": "no significant differences"}, {"measurement": "absorption of CoQ10 in jejunum and ileum", "setting": "[3]; rat, in vivo", "result": "significantly higher"}]}
{"compound": "CCCCCCCCCCCCCCCCC(=O)O", "note": "[heptadecanoic acid, reference compound]", "values": [{"measurement": "bioavailability in small intestinal tissues", "setting": "[3]", "result": "highest"}, {"measurement": "absorption of heptadecanoic acid in duodenum and jejunum", "setting": "[3]; rat, in vivo", "result": "slightly more absorption"}, {"measurement": "absorption of heptadecanoic acid in duodenum, jejunum and ileum", "setting": "[3]; rat, in vivo", "result": "significantly higher"}]}
{"compound": "COc1cc(/C=C/C(=O)CC(=O)/C=C/c2ccc(O)c(OC)c2)ccc1O", "note": "[curcumin]", "values": [{"measurement": "solubility at 60 min", "setting": "[4]; incubation for 60 min at 30° C.", "result": "~54", "unit": "µg/mL"}, {"measurement": "solubility at 60 min", "setting": "[4]; incubation for 60 min at 90° C. (so in the source)", "result": "~218", "unit": "µg/mL"}, {"measurement": "dissolution of curcumin crystals in corn oil (turbidity versus time)", "setting": "[5]; held at 30° C.", "result": "only dissolved slowly"}, {"measurement": "dissolution of curcumin crystals in corn oil (turbidity versus time)", "setting": "[5]; held at 100° C.", "result": "rapidly dissolved"}, {"measurement": "solubility", "setting": "[5]; bulk corn oil, oil or lipid, thermodynamic from solid, ambient temperature, estimated from turbidity at 3 and 4 mg/mL", "result": "3000 to 4000", "unit": "µg/mL"}, {"measurement": "dissolution of curcumin crystals in curcumin-emulsion mixtures", "setting": "[6]; held at 100° C., any incubation time", "result": "rapidly and completely dissolved"}, {"measurement": "dissolution of curcumin crystals in curcumin-emulsion mixtures", "setting": "[6]; incubated at 30° C. from 10 to 120 min", "result": "did not completely dissolve"}, {"measurement": "solubility at 10 min", "setting": "[7]; excipient emulsion, large droplets", "result": 230, "unit": "µg/mL"}, {"measurement": "solubility at 10 min", "setting": "[7]; excipient emulsions, small and medium droplets", "result": "270 to 280", "unit": "µg/mL"}, {"measurement": "amount of curcumin present within the emulsion", "setting": "[7]; large emulsion", "result": "~88 ± 26", "unit": "µg/mL"}, {"measurement": "amount of curcumin present within the emulsion", "setting": "[7]; medium emulsion", "result": "~104 ± 6", "unit": "µg/mL"}, {"measurement": "amount of curcumin present within the emulsion", "setting": "[7]; small emulsion", "result": "around 66±1 μg/mL"}, {"measurement": "dissolution of curcumin crystals in curcumin-excipient emulsion mixtures", "setting": "[8]; all mixtures held at 100° C.", "result": "rapidly and completely dissolved"}, {"measurement": "dissolution of curcumin crystals in curcumin-excipient emulsion mixtures", "setting": "[8]; all mixtures incubated at 30° C.", "result": "did not completely dissolve"}]}
